According to patent publication US20250304578A1, “NITROGEN-CONTAINING FUSED HETEROCYCLIC COMPOUNDS OF N-SULFONAMIDE AND USE THEREOF” (NUTSHELL THERAPEUTICS (SHANGHAI) CO., LTD., priority 2023, published 2025):
Where two headings read alike, the source gives them in different places.

Key:
[1] = biological target: CYP2D6 (Homo sapiens (Human), UniProt P10635); experiment: Inhibitory activity on CYP isoenzymes at a single concentration; assay type: in vitro ADME; conditions: pH 7.4, probe dextromethorphan; final compound concentration 10 μM; human liver microsomes; substrate dextromethorphan; read-out: Inhibition rate (%) CYP2D6
Sequence of CYP2D6 (P10635 whole entry): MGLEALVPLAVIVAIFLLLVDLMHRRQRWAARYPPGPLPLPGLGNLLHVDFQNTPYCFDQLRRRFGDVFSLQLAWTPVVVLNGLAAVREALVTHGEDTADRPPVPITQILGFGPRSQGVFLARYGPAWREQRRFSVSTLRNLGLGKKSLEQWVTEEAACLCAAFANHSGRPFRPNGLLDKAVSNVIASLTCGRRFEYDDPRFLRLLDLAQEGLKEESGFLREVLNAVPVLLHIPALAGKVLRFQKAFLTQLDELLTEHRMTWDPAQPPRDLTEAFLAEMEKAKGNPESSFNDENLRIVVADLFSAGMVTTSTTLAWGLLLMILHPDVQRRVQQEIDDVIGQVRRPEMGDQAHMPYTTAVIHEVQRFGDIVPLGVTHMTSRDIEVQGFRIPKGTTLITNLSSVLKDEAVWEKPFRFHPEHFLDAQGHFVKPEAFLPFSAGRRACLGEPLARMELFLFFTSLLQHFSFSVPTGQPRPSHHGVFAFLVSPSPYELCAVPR
Excerpt: (§1) The buffer was filtered through a 0.45 μm filter.

[2] = biological target: CYP2C9 (Homo sapiens (Human), UniProt P11712); experiment: as above; assay type: in vitro ADME; conditions: pH 7.4, probe diclofenac; final compound concentration 10 μM; human liver microsomes; substrate diclofenac; read-out: Inhibition rate (%) CYP2C9
Sequence of CYP2C9 (P11712 whole entry): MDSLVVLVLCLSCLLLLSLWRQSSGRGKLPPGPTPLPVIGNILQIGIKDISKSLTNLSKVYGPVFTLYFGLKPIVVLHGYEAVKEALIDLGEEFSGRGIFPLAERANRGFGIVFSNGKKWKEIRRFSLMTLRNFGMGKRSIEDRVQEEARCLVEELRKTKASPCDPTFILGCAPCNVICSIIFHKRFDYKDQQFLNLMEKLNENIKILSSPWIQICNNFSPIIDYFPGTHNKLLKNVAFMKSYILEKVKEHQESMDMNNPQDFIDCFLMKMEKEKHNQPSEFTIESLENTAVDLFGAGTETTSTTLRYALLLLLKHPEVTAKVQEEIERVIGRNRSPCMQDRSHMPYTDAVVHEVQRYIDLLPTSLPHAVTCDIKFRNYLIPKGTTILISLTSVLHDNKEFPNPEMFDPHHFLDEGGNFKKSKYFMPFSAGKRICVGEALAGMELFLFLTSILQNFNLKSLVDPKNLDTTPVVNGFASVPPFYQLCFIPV
Excerpt: as §1

[3] = test system: CYP3A4/5; experiment: as above; assay type: in vitro ADME; conditions: final compound concentration 10 μM, human liver microsomes
Excerpt: as §1

[4] = test system: NUGC-3 cells; experiment: Anti-proliferation effect on NUGC-3 cells (Cell Counting Kit-8); assay type: cell-based; conditions: Homo sapiens, NUGC-3, 120 h; 5 days of treatment
Procedure: Cell line NUGC-3 (JCRB, JCRB0822) was cultured in RPMI 1640 (Invitrogen, 11875-085) medium supplemented with 10% (v/v) fetal bovine serum (BI, 04-002-1A), according to the standard instructions of the American Type Culture Collection. The cell line was authenticated by short tandem repeat profiling.
In the proliferation assay, 1000 NUGC-3 cells were seeded in a 96-well flat clear bottom, TC-treated plate (Corning, 3903) in 200 μL of medium per well, and allowed to recover overnight in culture medium. Compounds were added with increasing concentration, with DMSO treatment serving as a […] control. After 5 days of treatment, the plate was equilibrated to room temperature for 30 minutes, and the number of living cells was measured by the addition of the Cell Counting Kit-8 reagent (MCE, HY-K0301). Absorbance was measured on an Enspire (Perkin elme). The relative viability of each group was presented as the percentage change relative to the […] control group and then fit to a four-parameter logit non-linear curve using the program XLFit (IDBS)

[5] = In vivo pharmacokinetic study in mice; conditions: male, mouse, plasma, CD-1 mice
Procedure: (§2) Intravenous injection: 40% HP-β-CD in water; intragastric administration: 0.2% HPC+0.5% Tween80 in water.
6 male mice. Fasting treatment was performed in the evening before the administration, with free access to water. During the experiment, the mice were allowed to eat and drink freely, and administered by intravenous injection or gavage. After administration, the animal status was observed, and abnormal behaviors were recorded. Blood was collected from the orbit at 0.0833, 0.25, 1, 2, 4, 8, and 24 hours after intravenous injection, and at 0.25, 0.5, 1, 2, 4, 6, 8, and 24 hours after intragastric administration. 20 μL of plasma sample was taken and added with 250 μL of acetonitrile (containing dexamethasone as an internal standard) to precipitate proteins. The mixture was centrifuged at 4° C. and 4000 rpm for 20 minutes, and 180 μL of the supernatant was taken and mixed with 180 μL of an aqueous solution containing 0.1% formic acid in a 96-well plate. Then, 10 μL of the sample was taken for LC-MS/MS detection.
(§3) The standard curve was established using the internal standard method, with the theoretical standard curve concentration as the X-axis and the peak area ratio as the Y-axis (peak area of the test compound/peak area of internal standard). Linear regression method (weighting factor 1/X2) was used, R^2>0.9900. Unknown samples were calculated by the standard curve. Pharmacokinetic parameters were calculated by the non-compartmental analysis model of WinNonlin 8.2 software and were presented in a report, including Clint, Cmax, AUC, etc.

[6] = biological target: CYP2C19 (Homo sapiens (Human), UniProt P33261); experiment: Inhibitory activity on CYP isoenzymes at a single concentration; assay type: in vitro ADME; conditions: pH 7.4, probe mephenytoin; final compound concentration 10 μM; human liver microsomes; substrate mephenytoin; NI: no inhibition; read-out: Inhibition rate (%) CYP2C19
Sequence of CYP2C19 (P33261 whole entry): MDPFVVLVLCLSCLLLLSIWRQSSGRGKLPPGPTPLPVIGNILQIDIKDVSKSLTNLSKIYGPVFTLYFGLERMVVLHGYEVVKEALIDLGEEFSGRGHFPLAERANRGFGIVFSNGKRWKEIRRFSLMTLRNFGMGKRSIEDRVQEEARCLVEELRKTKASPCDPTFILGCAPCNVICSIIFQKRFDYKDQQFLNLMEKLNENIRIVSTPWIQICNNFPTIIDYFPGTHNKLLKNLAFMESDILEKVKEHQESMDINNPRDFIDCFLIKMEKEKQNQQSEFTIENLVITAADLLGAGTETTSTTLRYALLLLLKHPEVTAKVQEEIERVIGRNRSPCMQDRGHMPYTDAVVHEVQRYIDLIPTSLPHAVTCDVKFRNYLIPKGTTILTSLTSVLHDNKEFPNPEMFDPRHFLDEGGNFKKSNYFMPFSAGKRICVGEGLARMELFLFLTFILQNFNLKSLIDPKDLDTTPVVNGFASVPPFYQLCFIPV
Excerpt: as §1

[7] = In vivo pharmacokinetic study in rats; conditions: male, rat, plasma, SD rats
Procedure: as §2
6 male rats. Fasting treatment was performed in the evening before the administration, with free access to water. During the experiment, the rats were allowed to eat and drink freely, and administered by intravenous injection or gavage. After administration, the animal status was observed, and abnormal behaviors were recorded. Blood was collected via jugular vein puncture at 0.0833, 0.25, 1, 2, 4, 8, and 24 hours after intravenous injection; Blood was collected via jugular vein puncture at 0.25, 0.5, 1, 2, 4, 6, 8, and 24 hours after intragastric administration. 50 μL of plasma sample was taken and added with 500 μL of acetonitrile (containing dexamethasone as an internal standard) to precipitate proteins. The mixture was centrifuged at 4° C. and 4000 rpm for 20 minutes, and 300 μL of the supernatant was taken and mixed with 300 μL of Watsons aqueous solution in a 96-well plate. Then, 5 μL of the sample was taken for LC-MS/MS detection.
as §3

[8] = pH 7.4, probe midazolam, substrate midazolam, read-out: Inhibition rate (%) CYP3A4/5 (Midazolam)

inhibition at 10 min, 10 µM [1]	inhibition at 10 min, 10 µM [2]	inhibition at 10 min, 10 µM [3, 8]	inhibition at 10 min, 10 µM ([3]; pH 7.4, probe testosterone, substrate testosterone, NI: no inhibition, read-out: Inhibition rate (%) CYP3A4/5 (Testosterone))	AUC(0-t) ([5]; IV 1 mg/kg)	AUC(0-t) ([5]; PO 10 mg/kg)	Cmax ([5]; PO 10 mg/kg)	inhibition at 10 min, 10 µM [6]	AUC(0-t) ([7]; IV 1 mg/kg)	AUC(0-t) ([7]; PO 10 mg/kg)	Cmax ([7]; PO 10 mg/kg)	Structure (SMILES)	IC50 [4]
1.6%	6.7%	9.8%	3.7%	–	–	–	–	–	–	–	COc1nc(C(=O)NS(C)(=O)=O)ccc1NCC#Cc1cc2c(N[C@@H]3CCN(C)C[C@@H]3F)cccn2c1CC(F)(F)F [Cpd-1, 5-((3-(8-(((3S,4R)-3-Fluoro-1-methylpiperidin-4-yl)amino)-3-(2,2,2-trifluoroethyl)indolizin-2-yl)prop-2-yn-1-yl)amino)-6-methoxy-N-(methylsulfonyl)picolinamide]	100 nM
7.2%	8.9%	8.7%	–	1.7 µM·h	15.7 µM·h	5.9 µM	8.4%	8.4 µM·h	58.4 µM·h	8.9 µM	[2H]C([2H])([2H])Oc1nc(C(=O)NS(C)(=O)=O)ccc1NCC#Cc1cc2c(N[C@@H]3CCN(C)C[C@@H]3F)cccn2c1CC(F)(F)F [Cpd-2, 5-((3-(8-(((3S,4R)-3-Fluoro-1-methylpiperidin-4-yl)amino)-3-(2,2,2-trifluoroethyl)indolizin-2-yl)prop-2-yn-1-yl)amino)-6-(methoxy-d3)-N-(methylsulfonyl)picolinamide]	58 nM
